We go through 31 molecules from patent US9815847B2 (Icahn School of Medicine at Mount Sinai, priority 2013, dated 2017).

Where only a bound is given, the exact number is not on record here.

One assay concerns DU145. The experiment in a line: Cytotoxicity on DU145 cancer cell line. To be noted: Homo sapiens, DU-145; DU145 prostate cancer; 96 h; 0.01-100 μM. Type of assay: cell-based. The protocol:
(§1) The effect of the compounds described herein on tumor cells was determined by the assay described by Latham et al., Oncogene 12:827-837 (1996). Tumor cells K562 (chronic myelogenous leukemia; leukemia cell line +ve for Bcr-Abl) or DU145 (prostate cancer) were plated in 12-well dishes at a cell density of 2.5×10^4 cells per well. The plated cells were treated 24 h. later with a DMSO solution of a compound as described herein at multiple concentrations ranging from 0.01 μM to 100 μM. The plates were examined 96 h. later under an inverted microscope, Olympus CK-2 using a 10× objective, and compound activity was noted by physical observation. When necessary, the total number of viable cells was determined by trypsinizing the wells and counting the number of viable cells, as determined by trypan blue exclusion, using a hemacytometer.

For a further assay, the system named is K562. The experiment in a line: Cytotoxicity on K562 cancer cell line. To be noted: Homo sapiens; K562 chronic myelogenous leukemia; 96 h; 0.01-100 μM. Type of assay: cell-based. How it is done: as §1

As for `CN1CCN(c2ccc(Nc3ncc(/C=C/C#N)c(N)n3)cc2)CC1` [Compound 8a, 3-{4-Amino-2-[4-(4-methylpiperazin-1-yl)phenylamino]pyrimidin-5-yl}acrylonitrile], the half-maximal inhibitory concentration (IC50) with DU145 and in the assay with K562 was 1000 to 25000 nM throughout.

For `CN1CCN(c2ccc(Nc3ncc(/C=C/C#N)c(Nc4ccn(C)n4)n3)cc2)CC1` [Compound 8aa, (E)-3-(4-[(1-Methyl-1H-pyrazol-3-yl)amino]-2-{[4-(4-methylpiperazin-1-yl)phenyl]amino}pyrimidin-5-yl)acrylonitrile], the half-inhibitory concentration (IC50) in the assay on DU145 and in the assay on K562 was 1000 to 25000 nM each time.

Regarding `CNc1nc(Nc2ccc(N3CCN(C)CC3)cc2)ncc1/C=C/C#N` [Compound 8b, 3-{4-Methylamino-2-[4-(4-methylpiperazin-1-yl)-phenylamino]pyrimidin-5-yl}acrylonitrile], the results for the IC50 in the assay on DU145 and in the assay with K562 were 1000 to 25000 nM and below 1000 nM, respectively.

As to `COc1cc(N2CCN(C)CC2)ccc1Nc1ncc(/C=C/C#N)c(NC2CCCC2)n1` [Compound 8bb, (E)-3-[4-(Cyclopentylamino)-2-{[2-methoxy-4-(4-methylpiperazin-1-yl)phenyl]amino}pyrimidin-5-yl]acrylonitrile], the concentration for half-maximal inhibition (IC50) in the assay with DU145 and in the assay on K562 was 1000 to 25000 nM in each case.

`CCNc1nc(Nc2ccc(N3CCN(C)CC3)cc2)ncc1/C=C/C#N` [Compound 8c, 3-{4-Ethylamino-2-[4-(4-methylpiperazin-1-yl)phenylamino]pyrimidin-5-yl}acrylonitrile]: the half-maximal inhibitory concentration (IC50) in the assay with DU145 and with K562 was below 1000 nM each time.

On to `CCCNc1nc(Nc2ccc(N3CCN(C)CC3)cc2)ncc1/C=C/C#N` [Compound 8d, 3-{4-Propylamino-2-[4-(4-methylpiperazin-1-yl)phenylamino]pyrimidin-5-yl}acrylonitrile], for which the IC50 with DU145 and in the assay on K562 was below 1000 nM throughout.

For `CC(C)Nc1nc(Nc2ccc(N3CCN(C)CC3)cc2)ncc1/C=C/C#N` [Compound 8e, 3-{4-Isopropylamino-2-[4-(4-methylpiperazin-1-yl)phenylamino]pyrimidin-5-yl}acrylonitrile], the half-maximal inhibitory concentration (IC50) with DU145 and in the assay on K562 was below 1000 nM in each case.

In the case of `CN1CCN(c2ccc(Nc3ncc(/C=C/C#N)c(NCC4CC4)n3)cc2)CC1` [Compound 8f, 3-{4-(Cyclopropylmethyl)amino-2-[4-(4-methylpiperazin-1-yl)phenylamino]pyrimidin-5-yl}acrylonitrile], the 50% inhibitory concentration (IC50) with DU145 and with K562 was below 1000 nM each time.

As to `CN1CCN(c2ccc(Nc3ncc(/C=C/C#N)c(NC4CC4)n3)cc2)CC1` [Compound 8g, 3-{4-Cyclopropylamino-2-[4-(4-methylpiperazin-1-yl)phenylamino]pyrimidin-5-yl}acrylonitrile], the concentration for half-maximal inhibition (IC50) in the assay on DU145 and with K562 was below 1000 nM in each case.

For `CN1CCN(c2ccc(Nc3ncc(/C=C/C#N)c(NC4CCCCC4)n3)cc2)CC1` [Compound 8i, 3-{4-Cyclohexylamino-2-[4-(4-methylpiperazin-1-yl)phenylamino]pyrimidin-5-yl}acrylonitrile], the half-maximal inhibitory concentration (IC50) with DU145 was 1000 to 25000 nM; in the assay with K562, below 1000 nM.

`N#C/C=C/c1cnc(Nc2ccc(N3CCOCC3)cc2)nc1NC1CCCC1` [Compound 8j, 3-{4-Cyclopentylamino-2-[(4-morpholin-4-yl)phenylamino]pyrimidin-5-yl}acrylonitrile]: the IC50 with DU145 and with K562 was 1000 to 25000 nM throughout.

Regarding `N#C/C=C/c1cnc(Nc2ccc3[nH]ccc3c2)nc1NC1CCCC1` [Compound 8k, 3-[4-Cyclopentylamino-2-(1H-indol-5-ylamino)pyrimidin-5-yl]acrylonitrile], the IC50 is 1000 to 25000 nM in the assay with DU145 and below 1000 nM with K562.

For `CN1CCC(c2ccc(Nc3ncc(/C=C/C#N)c(NC4CCCC4)n3)cc2)CC1` [Compound 8l, 3-{4-Cyclopentylamino-2-[4-(1-methylpiperidin-4-yl)phenylamino]pyrimidin-5-yl}acrylonitrile], the IC50 in the assay with DU145 and in the assay on K562 was 1000 to 25000 nM throughout.

`CNc1nc(Nc2ccc3[nH]ccc3c2)ncc1/C=C/C#N` [Compound 8m, 3-[2-(1H-Indol-5-ylamino)-4-(methylamino)pyrimidin-5-yl]acrylonitrile]: the half-maximal inhibitory concentration (IC50) in the assay on DU145 and with K562 was below 1000 nM throughout.

With `COc1ccc(Nc2ncc(/C=C/C#N)c(NC3CCCC3)n2)cc1` [Compound 8n, 3-{4-(Cyclopentylamino)-2-[(4-methoxyphenyl)amino]pyrimidin-5-yl)acrylonitrile], the IC50 in the assay on DU145 and in the assay on K562 was 1000 to 25000 nM each time.

Consider `CCN1CCN(c2ccc(Nc3ncc(/C=C/C#N)c(NC4CCCC4)n3)cc2)CC1` [Compound 8o, 3-{4-Cyclopentylamino-2-[4-(1-ethylpiperazin-4-yl)-phenylamino]-pyrimidin-5-yl}acrylonitrile], for which the IC50 with DU145 and in the assay on K562 was below 1000 nM each time.

As for `N#C/C=C/c1cnc(NCc2ccccc2)nc1NC1CCCC1` [Compound 8p, 3-[2-(Benzylamino)-4-(cyclopentylamino)pyrimidin-5-yl]acrylonitrile], the IC50 with DU145 and with K562 was 25000 to 50000 nM in each case.

As for `CN1CCN(c2ccc(Nc3ncc(/C=C/C#N)c(NC4CCCC4)n3)nc2)CC1` [Compound 8q, 3-(4-(Cyclopentylamino)-2-((5-(4-methylpiperazin-1-yl)pyridin-2-yl)amino)pyrimidin-5-yl)acrylonitrile], the IC50 in the assay with DU145 and with K562 was below 1000 nM in each case.

Turning to `N#C/C=C/c1cnc(Nc2ccc(N3CCOCC3)cc2)nc1NCC1CC1` [Compound 8r, 3-{4-[N-(Cyclopropylmethyl)amino]-2-[4-(morpholin-4-yl)phenylamino]pyrimidin-5-yl}acrylonitrile], the IC50 in the assay on DU145 and in the assay on K562 was below 1000 nM throughout.

Regarding `COc1ccc(Nc2ncc(/C=C/C#N)c(NCC3CC3)n2)cc1` [Compound 8s], the IC50 with DU145 and with K562 was 1000 to 25000 nM throughout.

As to `CCN1CCN(c2ccc(Nc3ncc(/C=C/C#N)c(NCC4CC4)n3)cc2)CC1` [Compound 8t, 3-{4-[(Cyclopropylmethyl)amino]-2-[4-(4-ethylpiperazin-1-yl)phenylamino]pyrimidin-5-yl}acrylonitrile], the IC50 in the assay with DU145 and in the assay with K562 was below 1000 nM each time.

For the molecule `N#C/C=C/c1cnc(Nc2ccc3[nH]ccc3c2)nc1NCC1CC1` [Compound 8u, 3-{4-[(Cyclopropylmethyl)amino]-2-[(1H-indol-5-yl)amino]pyrimidin-5-yl)acrylonitrile], the IC50 in the assay with DU145 and in the assay with K562 was below 1000 nM throughout.

As for `CCN(C)c1nc(Nc2ccc(N3CCN(C)CC3)cc2)ncc1/C=C/C#N` [Compound 8v, 3-{4-(N-Ethyl-N-methylamino)-2-[4-(4-methylpiperazin-1-yl)phenylamino]pyrimidin-5-yl}acrylonitrile], the IC50 in the assay with DU145 and in the assay with K562 was 25000 to 50000 nM in each case.

For `CN1CCN(c2ccc(Nc3ncc(/C=C/C#N)c(N4CCCC4)n3)cc2)CC1` [Compound 8w, 3-{2-[4-(4-Methylpiperazin-1-yl)phenylamino]-4-(pyrrolidin-1-yl)pyrimidin-5-yl}acrylonitrile], the concentration for half-maximal inhibition (IC50) in the assay on DU145 and with K562 was 1000 to 25000 nM in each case.

For the molecule `CCN(c1nc(Nc2ccc(N3CCN(C)CC3)cc2)ncc1/C=C/C#N)C1CCCC1` [Compound 8x, 3-{4-(N-Cyclopentyl-N-ethylamino)-2-[4-(4-methylpiperazin-1-yl)phenylamino]pyrimidin-5-yl}acrylonitrile], the IC50 in the assay with DU145 and in the assay with K562 was below 1000 nM throughout.

`CN1CCN(c2ccc(N(C(=O)CCCC[C@@H]3SC[C@@H]4NC(=O)N[C@@H]43)c3ncc(/C=C/C#N)c(NC4CCCC4)n3)cc2)CC1` [Compound 8y, N-[5-(2-Cyanovinyl)-4-(cyclopentylamino)pyrimidin-2-yl]-N-[4-(4-methylpiperazin-1-yl)phenyl]-5-((3aS,4S,6aR)-2-oxohexahydro-1H-thieno[3,4-d]imidazol-4-yl)pentanamide]: the 50% inhibitory concentration (IC50) with DU145 and with K562 was 1000 to 25000 nM throughout.

`N#C/C=C/c1cnc(N2CCOCC2)nc1NC1CCCC1` [Compound 8z, (E)-3-[4-(Cyclopentylamino)-2-morpholinopyrimidin-5-yl]acrylonitrile]: the IC50 with DU145 and in the assay with K562 was 1000 to 25000 nM each time.

For the molecule `CNc1nc(Nc2ccc3[nH]ccc3c2)ncc1/C=C/S(=O)(=O)c1ccc(F)cc1F` [Compound 15a, 5-{2-[2,4-(Difluorophenyl)sulfonyl]vinyl}-N^2-(1H-indol-5-yl)-N^4-methylpyrimidine-2,4-diamine], the IC50 in the assay on DU145 and in the assay with K562 was 1000 to 25000 nM in each case.

For `CN1CCN(c2ccc(Nc3ncc(/C=C/S(=O)(=O)c4ccc(F)cc4F)c(NC4CCCC4)n3)cc2)CC1` [Compound 15b, N^4-Cyclopentyl-5-{2-[(2,4-difluorophenyl)sulfonyl]vinyl}-N^2-[4-(4-methylpiperazin-1-yl)phenyl]pyrimidine-2,4-diamine], the IC50 in the assay on DU145 and in the assay on K562 was 1000 to 25000 nM throughout.

On to `CNc1nc(Nc2ccc3cc[nH]c3c2)ncc1/C=C/S(=O)(=O)c1ccc(F)cc1F` [Compound 15c, 5-{2-[2,4-(Difluorophenyl)sulfonyl]vinyl}-N^2-(1H-indol-6-yl)-N^4-methylpyrimidine-2,4-diamine], for which the IC50 in the assay with DU145 and in the assay with K562 was 1000 to 25000 nM throughout.

Turning to `CNc1nc(Nc2ccc(N3CCN(C)CC3)cc2)ncc1/C=C/S(=O)(=O)c1ccc(F)cc1F` [Compound 15d, (E)-5-{2-[(2,4-Difluorophenyl)sulfonyl]vinyl}-N^4-methyl-N^2-[4-(4-methylpiperazin-1-yl)phenyl]pyrimidine-2,4-diamine], the IC50 in the assay with DU145 and with K562 was 1000 to 25000 nM throughout.

As usually defined, the IC50 is the concentration at which inhibition is half-maximal. A low value points to greater potency.
